Numbered stars: 1 amine (or outer) side, 2 acyl side, 3 side chain; on linkers, the order of the positions; unused ones are H or OH. Square brackets hold non-standard residues; d marks the D form. Peptide text beside a SMILES is read from it. * marks the point of attachment. dArg(Nω-CONH(CH2)2NHCOEt) = CCC(=O)NCCNC(=O)/N=C(/N)NCCC[C@@H](N)C(=O)O; DOTA = O=C(O)CN1CCN(CC(=O)O)CCN(CC(=O)*)CCN(CC(=O)O)CC1; X2 = O=C([C@H](c1cccc(NCCCN[*:1])c1)N1Cc2ccccc2C1)[*:2]; NH(4-OH-benzyl) = Oc1ccc(CN*)cc1; Sar = CNCC(=O)O

The target of this assay is hNPY1R (Homo sapiens (Human), UniProt P25929). The assay can be described thus: NPY1R binding assay (SK-N-MC membrane, [125I]-Peptide YY competition).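 Further: bound radioligand separated by filtration over GF/C filter plates and counted, Ki obtained by non-linear regression.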 The settings on record: crude SK-N-MC membranes endogenously expressing NPY1R; [125I]-Peptide YY (human) 0.05 nM; 120 min at room temperature; read-out: hNPY1R binding Ki.
hNPY1R, sequence (P25929 whole entry): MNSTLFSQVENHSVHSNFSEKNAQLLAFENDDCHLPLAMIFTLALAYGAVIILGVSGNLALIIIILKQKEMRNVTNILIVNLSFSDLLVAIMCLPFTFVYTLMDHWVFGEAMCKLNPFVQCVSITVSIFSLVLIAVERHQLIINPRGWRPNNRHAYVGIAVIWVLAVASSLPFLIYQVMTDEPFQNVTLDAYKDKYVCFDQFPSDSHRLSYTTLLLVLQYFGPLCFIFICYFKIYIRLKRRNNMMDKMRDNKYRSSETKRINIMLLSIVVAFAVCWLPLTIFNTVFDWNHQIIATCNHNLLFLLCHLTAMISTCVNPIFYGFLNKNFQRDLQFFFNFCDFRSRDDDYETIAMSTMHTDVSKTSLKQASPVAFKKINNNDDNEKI

Procedure: Crude membrane fractions are prepared from SK-N-MC cells endogenously expressing the NPY1R receptor. The cells are grown to 85-100% confluence on standard tissue culture dishes in Eagle's Minimum Essential Medium supplemented with 10% dialyzed FBS. To prepare membranes, cells are scraped and collected in 1× Dulbecco's phosphate buffered saline and then pelleted at 1000 RPM's. The cell pellet is reconstituted in membrane preparation buffer (20 mM HEPES, 6 mM MgCl2 and 1 mM EGTA, protease inhibitor tablets, pH 7.4) and placed in a cell disruption vessel at 1000 PSI for 30 minutes on ice. The pressurized contents are then released and spun down at 1000 RPMs and the supernatant is collected and further centrifuged at 15,000 RPMs to pellet the membranes. The membrane pellet is resuspended in membrane preparation buffer, snap frozen and stored at −80° C. for later use.
Assay contents are then filtered through unifilter GF/C microplates and washed with 9×400 μl of cold wash buffer (25 mM HEPES, 5 mM MgCl2, 1 mM CaCl2), 500 mM NaCl, 0.1% Tween-20, pH 7.4). Assay plates are read using a Top Count NXT and Ki values for compounds are determined using a GraphPad Prism 6 non-linear regression analysis.

For the compound `CCC(=O)NCCNC(=O)/N=C(/N)NCCC[C@@H](NC(=O)[C@H](c1ccccc1)N1Cc2cccc(NC(=O)CCCNC(=O)CCCCCNC(=O)CN3CCN(CC(=O)O)CCN(CC(=O)O)CCN(CC(=O)O)CC3)c2C1)C(=O)NCc1c(F)cc(O)cc1F` [compound 9, 2,2′,2″-(10-(2-((6-((4-((2-((1S,4R,Z)-9-amino-4-((2,6-difluoro-4-hydroxybenzyl)carbamoyl)-2,11,16-trioxo-1-phenyl-3,8,10,12,15-pentaazaoctadec-9-en-1-yl)isoindolin-4-yl)amino)-4-oxobutyl)amino)-6-oxohexyl)amino)-2-oxoethyl)-1,4,7,10-tetraazacyclododecane-1,4,7-triyl)triacetic acid], the inhibition constant (Ki) was less than 0.01 µM. Next, `CCC(=O)NCCNC(=O)/N=C(/N)NCCC[C@@H](NC(=O)[C@H](c1cccc(N(C)CCCNC(=O)CCCCCNC(=O)CN2CCN(CC(=O)O)CCN(CC(=O)O)CCN(CC(=O)O)CC2)c1)N1Cc2ccccc2C1)C(=O)NCc1ccc(O)cc1` [compound 11, 2,2′,2″-(10-(2-((6-((3-((3-((1S,4R,Z)-9-amino-4-((4-hydroxybenzyl)carbamoyl)-1-(isoindolin-2-yl)-2,11,16-trioxo-3,8,10,12,15-pentaazaoctadec-9-en-1-yl)phenyl)(methyl)amino)propyl)amino)-6-oxohexyl)amino)-2-oxoethyl)-1,4,7,10-tetraazacyclododecane-1,4,7-triyl)triacetic acid]: less than 0.01 µM; `CCC(=O)NCCNC(=O)/N=C(/N)NCCC[C@@H](NC(=O)[C@H](c1cccc(OCCCNC(=O)CCCCCNC(=O)CN2CCN(CC(=O)O)CCN(CC(=O)O)CCN(CC(=O)O)CC2)c1)N1Cc2ccccc2C1)C(=O)NCc1ccc(O)cc1` [compound 12, 2,2′,2″-(10-(2-((6-((3-(3-((1S,4R,Z)-9-amino-4-((4-hydroxybenzyl)carbamoyl)-1-(isoindolin-2-yl)-2,11,16-trioxo-3,8,10,12,15-pentaazaoctadec-9-en-1-yl)phenoxy)propyl)amino)-6-oxohexyl)amino)-2-oxoethyl)-1,4,7,10-tetraazacyclododecane-1,4,7-triyl)triacetic acid]: less than 0.01 µM. Next, `CCNC(=O)/N=C(/N)NCCC[C@@H](NC(=O)[C@H](c1cccc(NCCCNC(=O)[C@H](N)CCCCNC(=O)CN2CCN(CC(=O)O)CCN(CC(=O)O)CCN(CC(=O)O)CC2)c1)N1Cc2ccccc2C1)C(=O)NCc1c(F)cc(O)cc1F` [compound 13, 2,2′,2″-(10-(2-(((R)-5-amino-6-((3-((3-((11R,14S,Z)-6-amino-11-((2,6-difluoro-4-hydroxybenzyl)carbamoyl)-14-(isoindolin-2-yl)-4,13-dioxo-3,5,7,12-tetraazatetradec-5-en-14-yl)phenyl)amino)propyl)amino)-6-oxohexyl)amino)-2-oxoethyl)-1,4,7,10-tetraazacyclododecane-1,4,7-triyl)triacetic acid]: less than 0.01 µM; `CCNC(=O)/N=C(/N)NCCC[C@@H](NC(=O)[C@H](c1cccc(NCCCNC(=O)CCOCCNC(=O)CN2CCN(CC(=O)O)CCN(CC(=O)O)CCN(CC(=O)O)CC2)c1)N1Cc2ccccc2C1)C(=O)NCc1c(F)cc(O)cc1F` [compound 14, 2,2′,2″-(10-(2-((2-(3-((3-((3-((11R,14S,Z)-6-amino-11-((2,6-difluoro-4-hydroxybenzyl)carbamoyl)-14-(isoindolin-2-yl)-4,13-dioxo-3,5,7,12-tetraazatetradec-5-en-14-yl)phenyl)amino)propyl)amino)-3-oxopropoxy)ethyl)amino)-2-oxoethyl)-1,4,7,10-tetraazacyclododecane-1,4,7-triyl)triacetic acid]: less than 0.01 µM; `CCC(=O)NCCNC(=O)/N=C(/N)NCCC[C@@H](NC(=O)[C@H](c1ccc(OCCCNC(=O)CCOCCNC(=O)CN2CCN(CC(=O)O)CCN(CC(=O)O)CCN(CC(=O)O)CC2)cc1)N1Cc2ccccc2C1)C(=O)NCc1ccc(O)cc1` [compound 15, 2,2′,2″-(10-(2-((2-(3-((3-(4-((1S,4R,Z)-9-amino-4-((4-hydroxybenzyl)carbamoyl)-1-(isoindolin-2-yl)-2,11,16-trioxo-3,8,10,12,15-pentaazaoctadec-9-en-1-yl)phenoxy)propyl)amino)-3-oxopropoxy)ethyl)amino)-2-oxoethyl)-1,4,7,10-tetraazacyclododecane-1,4,7-triyl)triacetic acid]: less than 0.01 µM. The result for `CCC(=O)NCCNC(=O)/N=C(/N)NCCC[C@@H](NC(=O)[C@H](c1ccc(OCCCNc2c(NCCNC(=O)CN3CCN(CC(=O)O)CCN(CC(=O)O)CCN(CC(=O)O)CC3)c(=O)c2=O)cc1)N1Cc2ccccc2C1)C(=O)NCc1ccc(O)cc1` [compound 16, 2,2′,2″-(10-(2-((2-((2-((3-(4-((1S,4R,Z)-9-amino-4-((4-hydroxybenzyl)carbamoyl)-1-(isoindolin-2-yl)-2,11,16-trioxo-3,8,10,12,15-pentaazaoctadec-9-en-1-yl)phenoxy)propyl)amino)-3,4-dioxocyclobut-1-en-1-yl)amino)ethyl)amino)-2-oxoethyl)-1,4,7,10-tetraazacyclododecane-1,4,7-triyl)triacetic acid] reads less than 0.01 µM; that for `CCC(=O)NCCNC(=O)/N=C(/N)NCCC[C@@H](NC(=O)[C@H](c1ccc(OCCCNC(=O)CCOCCNC(=O)c2ccc(CNC(=O)CN3CCN(CC(=O)O)CCN(CC(=O)O)CCN(CC(=O)O)CC3)cc2)cc1)N1Cc2ccccc2C1)C(=O)NCc1ccc(O)cc1` [compound 17, 2,2′,2″-(10-(2-((4-((2-(3-((3-(4-((1S,4R,Z)-9-amino-4-((4-hydroxybenzyl)carbamoyl)-1-(isoindolin-2-yl)-2,11,16-trioxo-3,8,10,12,15-pentaazaoctadec-9-en-1-yl)phenoxy)propyl)amino)-3-oxopropoxy)ethyl)carbamoyl)benzyl)amino)-2-oxoethyl)-1,4,7,10-tetraazacyclododecane-1,4,7-triyl)triacetic acid], less than 0.01 µM. Take `CCC(=O)NCCNC(=O)/N=C(/N)NCCC[C@@H](NC(=O)[C@H](c1ccc(OCCCNC(=O)[C@H]2CC[C@H](CNC(=O)CN3CCN(CC(=O)O)CCN(CC(=O)O)CCN(CC(=O)O)CC3)CC2)cc1)N1Cc2ccccc2C1)C(=O)NCc1ccc(O)cc1` [compound 18, 2,2′,2″-(10-(2-((((1S,4r)-4-((3-(4-((1S,4R,Z)-9-amino-4-((4-hydroxybenzyl)carbamoyl)-1-(isoindolin-2-yl)-2,11,16-trioxo-3,8,10,12,15-pentaazaoctadec-9-en-1-yl)phenoxy)propyl)carbamoyl)cyclohexyl)methyl)amino)-2-oxoethyl)-1,4,7,10-tetraazacyclododecane-1,4,7-triyl)triacetic acid]: the Ki was less than 0.01 µM.

`CCC(=O)NCCNC(=O)/N=C(/N)NCCC[C@@H](NC(=O)[C@H](c1cccc(NCCCNC(=O)CCCCCNC(=O)CN2CCN(CC(=O)O)CCN(CC(=O)O)CCN(CC(=O)O)CC2)c1)N1Cc2ccccc2C1)C(=O)NCc1ccc(O)cc1` [compound 19, 2,2′,2″-(10-(2-((6-((3-((3-((1S,4R,Z)-9-amino-4-((4-hydroxybenzyl)carbamoyl)-1-(isoindolin-2-yl)-2,11,16-trioxo-3,8,10,12,15-pentaazaoctadec-9-en-1-yl)phenyl)amino)propyl)amino)-6-oxohexyl)amino)-2-oxoethyl)-1,4,7,10-tetraazacyclododecane-1,4,7-triyl)triacetic acid]: the Ki was less than 0.01 µM. The result for `CCC(=O)NCCNC(=O)/N=C(/N)NCCC[C@@H](NC(=O)[C@H](c1cccc(NCCCNC(=O)CCOCCNC(=O)CN2CCN(CC(=O)O)CCN(CC(=O)O)CCN(CC(=O)O)CC2)c1)N1Cc2ccccc2C1)C(=O)NCc1ccc(O)cc1` [compound 20, 2,2′,2″-(10-(2-((2-(3-((3-((3-((1S,4R,Z)-9-amino-4-((4-hydroxybenzyl)carbamoyl)-1-(isoindolin-2-yl)-2,11,16-trioxo-3,8,10,12,15-pentaazaoctadec-9-en-1-yl)phenyl)amino)propyl)amino)-3-oxopropoxy)ethyl)amino)-2-oxoethyl)-1,4,7,10-tetraazacyclododecane-1,4,7-triyl)triacetic acid] reads less than 0.01 µM. The result for `CCC(=O)NCCNC(=O)/N=C(/N)NCCC[C@@H](NC(=O)[C@H](c1cccc(NCCCNC(=O)CN(C)C(=O)CN(C)C(=O)CN(C)C(=O)CN2CCN(CC(=O)O)CCN(CC(=O)O)CCN(CC(=O)O)CC2)c1)N1Cc2ccccc2C1)C(=O)NCc1ccc(O)cc1` [compound 21, 2,2′,2″-(10-(15-((3-((1S,4R,Z)-9-amino-4-((4-hydroxybenzyl)carbamoyl)-1-(isoindolin-2-yl)-2,11,16-trioxo-3,8,10,12,15-pentaazaoctadec-9-en-1-yl)phenyl)amino)-3,6,9-trimethyl-2,5,8,11-tetraoxo-3,6,9,12-tetraazapentadecyl)-1,4,7,10-tetraazacyclododecane-1,4,7-triyl)triacetic acid] ({DOTA}-[Sar][Sar][Sar][X2][dArg(Nω-CONH(CH2)2NHCOEt)]-{NH(4-OH-benzyl)}) reads less than 0.01 µM; that for `CCC(=O)NCCNC(=O)/N=C(/N)NCCC[C@@H](NC(=O)[C@H](c1cccc(NCCCNC(=O)NOCCNC(=O)CN2CCN(CC(=O)O)CCN(CC(=O)O)CCN(CC(=O)O)CC2)c1)N1Cc2ccccc2C1)C(=O)NCc1ccc(O)cc1` [compound 22, 2,2′,2″-(10-(12-((3-((1S,4R,Z)-9-amino-4-((4-hydroxybenzyl)carbamoyl)-1-(isoindolin-2-yl)-2,11,16-trioxo-3,8,10,12,15-pentaazaoctadec-9-en-1-yl)phenyl)amino)-2,8-dioxo-6-oxa-3,7,9-triazadodecyl)-1,4,7,10-tetraazacyclododecane-1,4,7-triyl)triacetic acid], less than 0.01 µM; that for `CCC(=O)NCCNC(=O)/N=C(/N)NCCC[C@@H](NC(=O)[C@H](c1cccc(NCCCNC(=O)CCOCCOCCOCCOCCOCCOCCNC(=O)CN2CCN(CC(=O)O)CCN(CC(=O)O)CCN(CC(=O)O)CC2)c1)N1Cc2ccccc2C1)C(=O)NCc1ccc(O)cc1` [compound 23, 2,2′,2″-(10-(28-((3-((1S,4R,Z)-9-amino-4-((4-hydroxybenzyl)carbamoyl)-1-(isoindolin-2-yl)-2,11,16-trioxo-3,8,10,12,15-pentaazaoctadec-9-en-1-yl)phenyl)amino)-2,24-dioxo-6,9,12,15,18,21-hexaoxa-3,25-diazaoctacosyl)-1,4,7,10-tetraazacyclododecane-1,4,7-triyl)triacetic acid], less than 0.01 µM.

The term Ki denotes the dissociation constant of the complex between target and ligand, obtained from inhibition or displacement.
